Test results reported in US9839618B2, “Compositions and methods relating to proliferative diseases” (The Penn State Research Foundation, priority 2010, dated 2017).
pIC50: −log10 of the molar value.

Tests used:
[1] = system: cell lines established from melanocytic lesions or melanomas; assay: MTS assay, leelamine on melanocytic lesion and melanoma cell lines; format: cell-based; settings: 72 hour exposure; read-out: concentration to kill 50% of cells
Protocol: The efficacy of leelamine to kill other cancer types is measured and the IC50 for cell lines derived from carcinomas of breast, lung, prostate, connective tissue, pancreas and colon determined. The MTS assay as described in Sharma, A. et al., Clin Cancer Res, 2009, 15:1674-85; and Madhunapantula, S. V. et al., Mol Cancer Ther, 2008, 7:1297-308 is used to establish the IC50 at 24, 48 and 72 hours of leelamine treatment for normal human epidermal melanocytes (FOM103), normal skin fibroblast cells (FF2441), normal skin keratinocytes (HFK) and compared to melanocytic lesion cells from the radial-, vertical- and metastatic melanoma stages. […] IC50 values for each compound in μmol/L for respective cell lines are measured from three independent experiments using GraphPad Prism version 4.01 (GraphPad Software, La Jolla, Calif.). […]
5×10^3 cells per well in 100 μL of media are plated and grown in a 96-well plate for 48 to 72 hours and treated with either DMSO vehicle control or 0.62 to 40 μmol/L of leelamine for 24, 48 or 72 hours. IC50 values for each compound in μmol/L for respective cell lines are measured from three independent experiments using GraphPad Prism version 4.01 (GraphPad Software, La Jolla, Calif.).

[2] = system: UACC 903 xenograft tumors; assay: Size and time matched tumors (Ki-67, TUNEL, CD31, Western blot); format: in vivo, mice
Source text: Rates of cell proliferation (using Ki-67), apoptosis (using terminal deoxynucleotidyl transferase-mediated dUTP nick-end labeling) and tumor angiogenesis (using CD31 staining) are quantified in time and size matched tumors treated with leelamine compared with DMSO treated control animals to identify the underlying mechanism by which leelamine inhibits melanoma tumor development using an established method described in Sharma, A. et al., Clin Cancer Res, 2009, 15:1674-85; Madhunapantula, S. V. et al., Mol Cancer Ther, 2008, 7:1297-308; Sharma, A. et al., Cancer Res, 2006, 66:8200-9; and Stahl, J. M. et al., Cancer Res, 2003, 63:2881-90. Size and time matched tumors at each time are compared to identify the first statistically quantifiable difference(s) affected by leelamine treatment in the rates of processes regulating tumor development i.e. cell proliferation, apoptosis or vascular development. […] Cell proliferation is measured using mouse anti-human Ki-67 staining from Pharmigen (San Diego, Calif.). Apoptosis rates are scored using “terminal deoxynucleotidyl transferase-mediated dUTP nick end labeling (TUNEL)” TMR Red Apoptosis kit from Roche (Mannheim, Germany). […] The number of Ki-67 and TUNEL positive cells is quantified as the percentage of total cells in tumors using the IP Lab imaging software program. For CD31, the area occupied by blood vessels is measured. […]

[3] = Toxicity assessment of leelamine; format: in vivo, Swiss Webster mice
Protocol: To assess toxicity, Swiss Webster (n=5) mice are intraperitoneally injected with 5 or 10 mg/kg body weight leelamine or with vehicle control (DMSO) every day for 4 weeks. Animals are weighed daily to ascertain the toxicity leading to changes in body weight. Blood is collected by cardiac puncture at the end of treatment and analyzed for the levels of ALP (alkaline phosphatase), ALT (alanine aminotransferase), AST (aspartate aminotransferase), CK (creatine kinase), CREA (creatinine) and GLU (glucose), parameters indicative of organ related toxicity, following systemic administration of 10-mg/Kg-body weight of leelamine, shown in FIG. 11. […] Vital organs including liver, spleen, kidney, intestine, lung and heart from control and experimental animals are collected at the end of the test period, formalin fixed, paraffin-embedded, hematoxylin/eosin stained and analyzed microscopically for changes in cellular morphology or tissue architecture as described in Sharma, A. et al., Clin Cancer Res, 2009, 15:1674-85; and Madhunapantula, S. V. et al., Mol Cancer Ther, 2008, 7:1297-308.

[4] = i.p. 10 mg/kg daily for 4 weeks

CC(C)c1ccc2c(c1)CCC1[C@](C)(CN)CCC[C@]21C (stereo partly drawn) [Leelamine, [(1R,4aS)-1,4a-dimethyl-7-(propan-2-yl)-1,2,3,4,4a,9,10,10a-octahydrophenanthren-1-yl]methanamine]
pIC50 [1]: 5.52 to 6.00 | reduction in proliferating cells (Ki-67) ([2]; day 11, i.p. 7.5 mg/kg daily from day 6, vs DMSO): 50% | active pAkt in tumor lysates (Western blot) ([2]; days 11, 13 and 15, treated from day 6): decreased active pAkt | blood ALP, ALT, AST, CK, CREA, GLU [3, 4]: No significant differences | histology of liver, spleen, kidney, intestine, lung, heart [3, 4]: did not significantly alter cell morphology or overall structure | body weights ([3]; i.p. 5 or 10 mg/kg every day for 4 weeks): no significant differences
